From ChEMBL document CHEMBL1201862, “PubChem BioAssay data set” (2004)
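Five concentrations, 48 hours, 96-well plates. At the GI50, growth is halved.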 The source made the active and inactive calls. No stated cut-off is given here; in the data, active = GI50 up to about 1.1 µM and inactive = higher.

How the values were obtained:
Assay in all cases: NCI tumour cell line growth inhibition, 48 h
DU-145 = system: DU-145
HL-60 = system: HL-60
ACHN = system: ACHN
CCRF-CEM = system: CCRF-CEM
OVCAR-5 = system: OVCAR-5
TK-10 = system: TK-10
HOP-62 = system: HOP-62
U-251 = system: U-251
M14 = system: M14
SF-539 = system: SF-539
SW-620 = system: SW-620
SK-OV-3 = system: SK-OV-3
IGROV-1 = system: IGROV-1
786-0 = system: 786-0
RXF 393 = system: RXF 393
MDA-MB-435 = system: MDA-MB-435
Hs-578T = system: Hs-578T
LOX IMVI = system: LOX IMVI
A498 = system: A498

| SMILES | GI50 (DU-145) | GI50 (HL-60) | GI50 (ACHN) | GI50 (CCRF-CEM) | GI50 (OVCAR-5) | GI50 (TK-10) | GI50 (HOP-62) | GI50 (U-251) | GI50 (M14) | GI50 (SF-539) | GI50 (SW-620) | GI50 (SK-OV-3) | GI50 (IGROV-1) | GI50 (786-0) | GI50 (RXF 393) | GI50 (MDA-MB-435) | GI50 (Hs-578T) | GI50 (LOX IMVI) | GI50 (A498) |
| --- | --- | --- | --- | --- | --- | --- | --- | --- | --- | --- | --- | --- | --- | --- | --- | --- | --- | --- | --- |
| O=C1c2ccccc2C2=Nc3ccncc3CN12 | > 100 µM (inactive) | > 100 µM (inactive) | > 100 µM (inactive) | > 100 µM (inactive) | > 100 µM (inactive) | > 100 µM (inactive) | > 100 µM (inactive) | > 100 µM (inactive) | > 100 µM (inactive) | > 100 µM (inactive) | > 100 µM (inactive) | > 100 µM (inactive) | > 100 µM (inactive) | > 100 µM (inactive) | > 100 µM (inactive) | – | – | – | – |
| CCOC(=S)SCC(=O)O | – | 2.01 µM (inactive) | > 100 µM (inactive) | 1 µM (active) | > 100 µM (inactive) | > 100 µM (inactive) | > 100 µM (inactive) | > 100 µM (inactive) | > 100 µM (inactive) | > 100 µM (inactive) | > 100 µM (inactive) | > 100 µM (inactive) | > 100 µM (inactive) | > 100 µM (inactive) | > 100 µM (inactive) | > 100 µM (inactive) | > 100 µM (inactive) | > 100 µM (inactive) | > 100 µM (inactive) |
| NC(=O)c1ncn(C2OC(CO)C(O)C2O)c1O (centres undefined) | – | 50.2 µM (inactive) | > 100 µM (inactive) | > 100 µM (inactive) | 58.1 µM (inactive) | > 100 µM (inactive) | > 100 µM (inactive) | > 100 µM (inactive) | > 100 µM (inactive) | > 100 µM (inactive) | 44.4 µM (inactive) | – | > 100 µM (inactive) | > 100 µM (inactive) | > 100 µM (inactive) | – | – | > 100 µM (inactive) | > 100 µM (inactive) |
| COc1ccc(Nc2c[nH]c(=O)[nH]c2=O)cc1 | > 100 µM (inactive) | > 100 µM (inactive) | > 100 µM (inactive) | > 100 µM (inactive) | – | > 100 µM (inactive) | > 100 µM (inactive) | > 100 µM (inactive) | > 100 µM (inactive) | > 100 µM (inactive) | > 100 µM (inactive) | > 100 µM (inactive) | > 100 µM (inactive) | > 100 µM (inactive) | > 100 µM (inactive) | > 100 µM (inactive) | – | > 100 µM (inactive) | > 100 µM (inactive) |
| O=C1C=Cc2c(Cl)sc(Cl)c21 | 2.32 µM (inactive) | – | 1.71 µM (inactive) | 0.234 µM (active) | 4.3 µM (inactive) | 2.24 µM (inactive) | 1.74 µM (inactive) | 2.99 µM (inactive) | 1.87 µM (inactive) | 1.48 µM (inactive) | 0.845 µM (active) | 15.2 µM (inactive) | 1.63 µM (inactive) | 0.94 µM (active) | 2.09 µM (inactive) | 2.02 µM (inactive) | – | 0.372 µM (active) | 4.06 µM (inactive) |
| O=C(CCCN1CC=C(n2c(=O)[nH]c3ccccc32)CC1)c1cccs1 | > 100 µM (inactive) | > 100 µM (inactive) | > 100 µM (inactive) | > 100 µM (inactive) | > 100 µM (inactive) | 67.5 µM (inactive) | > 100 µM (inactive) | > 100 µM (inactive) | > 100 µM (inactive) | > 100 µM (inactive) | > 100 µM (inactive) | > 100 µM (inactive) | > 100 µM (inactive) | > 100 µM (inactive) | > 100 µM (inactive) | > 100 µM (inactive) | – | > 100 µM (inactive) | > 100 µM (inactive) |
| N#Cc1c(-c2ccccc2)c(C#N)c(=O)n(NS(=O)(=O)c2ccccc2)c1O | – | > 100 µM (inactive) | > 100 µM (inactive) | > 100 µM (inactive) | > 100 µM (inactive) | > 100 µM (inactive) | > 100 µM (inactive) | > 100 µM (inactive) | > 100 µM (inactive) | > 100 µM (inactive) | > 100 µM (inactive) | > 100 µM (inactive) | > 100 µM (inactive) | > 100 µM (inactive) | > 100 µM (inactive) | > 100 µM (inactive) | > 100 µM (inactive) | > 100 µM (inactive) | > 100 µM (inactive) |
| Cc1cc2[nH]c3c(C#N)c(-c4ccccc4)c(CN4CCOCC4)c(=O)n3c2cc1C | – | – | > 100 µM (inactive) | > 100 µM (inactive) | > 100 µM (inactive) | > 100 µM (inactive) | > 100 µM (inactive) | > 100 µM (inactive) | > 100 µM (inactive) | > 100 µM (inactive) | > 100 µM (inactive) | > 100 µM (inactive) | – | > 100 µM (inactive) | > 100 µM (inactive) | > 100 µM (inactive) | – | > 100 µM (inactive) | > 100 µM (inactive) |
| NNC(=O)C(=O)N/N=C(\CCC(=O)Nc1ccc(Cl)cc1)Cc1nc2ccccc2s1 | – | 4.34 µM (inactive) | 26.1 µM (inactive) | 3.32 µM (inactive) | 33.1 µM (inactive) | 56.1 µM (inactive) | 53.2 µM (inactive) | 18.8 µM (inactive) | 19.7 µM (inactive) | 32.7 µM (inactive) | 35.3 µM (inactive) | 27.3 µM (inactive) | 13.6 µM (inactive) | 17.3 µM (inactive) | 17.2 µM (inactive) | – | – | 17.7 µM (inactive) | 52 µM (inactive) |
| CCN(CC)CCC(=O)OC1C(C)=CC(C)C(=O)CC(C(C)CC2CCC(O)C(OC)C2)OC(=O)C2CCCCN2C(=O)C(=O)[C@@]2(O)OC(CCC2C)CC(OC)\C(C)=C/C=C/C=C/C(C)CC(C)C(=O)C1OC (some centres undefined) | – | 1.96 µM (inactive) | 1.05 µM (active) | – | 10.3 µM (inactive) | 5.69 µM (inactive) | < 0.01 µM (active) | 10.4 µM (inactive) | 10.4 µM (inactive) | < 0.01 µM (active) | 11.6 µM (inactive) | < 0.01 µM (active) | < 0.01 µM (active) | 7.91 µM (inactive) | < 0.01 µM (active) | 4.57 µM (inactive) | < 0.01 µM (active) | < 0.01 µM (active) | < 0.01 µM (active) |
| COc1ccc2c(c1)CC1=C(O2)c2ccc(OC)cc2OC1 | 44.1 µM (inactive) | > 100 µM (inactive) | 18.2 µM (inactive) | 31 µM (inactive) | 49.4 µM (inactive) | 22.6 µM (inactive) | 41.9 µM (inactive) | 17.5 µM (inactive) | 19.7 µM (inactive) | 35.9 µM (inactive) | 16.6 µM (inactive) | 90.4 µM (inactive) | 28.5 µM (inactive) | 21.3 µM (inactive) | – | 17.5 µM (inactive) | – | 13.6 µM (inactive) | > 100 µM (inactive) |
| Cc1cc(S(=O)(=O)Nc2nc3ccccc3c(=O)n2N)c(S)cc1Cl | 43 µM (inactive) | > 100 µM (inactive) | 33.6 µM (inactive) | 62.5 µM (inactive) | 55.5 µM (inactive) | 48.1 µM (inactive) | 14.8 µM (inactive) | 23.1 µM (inactive) | 39.6 µM (inactive) | 27.6 µM (inactive) | 59.8 µM (inactive) | 32.3 µM (inactive) | 43.8 µM (inactive) | 21.3 µM (inactive) | – | 32.7 µM (inactive) | – | 37.2 µM (inactive) | – |
